Among the data in US20250092031A1, “RIPK3 INHIBITORS AND METHODS OF USE” (Momentum Therapeutics, Inc., priority 2023, published 2025) are IC50 values, retold here.

The target in one test is T1, RIPK3 (Homo sapiens, UniProt Q9Y572).
T1 construct: purchased Reaction Biology Corporation (RBC), Malvern, USA (contract assay service)
The test can be described thus: RIPK3 kinase assay (radiometric HotSpot, Reaction Biology Corporation). It counts as biochemical. As for the experimental part: The assays were performed in Reaction Biology Corporation (RBC), Malvern, USA. Compounds were diluted with DMSO to a final stock concentration of 10 mM and then were tested in a 10-dose IC50 mode with a 3-fold serial dilution starting at […]. All the reactions were carried out at 10 μM ATP and MBP 20 μM as substrates. RIPK3 activity was determined using radiometric HotSpot™ kinase assay protocol and IC50 values were calculated use GraphPad Prism software.

The subject of a further test is Murine L929 cells. The test can be described thus: Necroptosis inhibition assay in L929 cells (mTNFα + zVAD, Sytox Green). Format: cell-based. Conditions: Mus musculus, 10 ng/ml mTNFα and 20 μM zVAD, 6 hours, Sytox Green fluorescence. Put shortly:
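Murine L929 cells, treated 48 h after seeding with 10 ng/ml mTNFα plus 20 μM zVAD and compound ([…]), 6 h at 37° C. Necroptosis read by Sytox Green fluorescence (500ex/530em), scaled between 0.1% DMSO and TNFα+zVAD wells; IC50 from inhibition curves.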

The next test deals with Human HT-29 cells. The test can be described thus: Necroptosis inhibition assay in HT-29 cells (hTNFα + zVAD + SMAC mimetic, Sytox Green/Hoechst). It counts as cell-based. The settings on record: 10 ng/ml hTNFα, 20 μM zVAD and 100 nM SMAC mimetic, 6 hours, Sytox/Hoechst positive cells, read-out: HT29 necroptosis inhibition IC50. Here is the method:
Human HT-29 cells (ATCC-HTB-38) were seeded at 10,000 cells/well in a 96-well plate. Cells were treated 48 hours after seeding with 10 ng/ml hTNFα (R&D Systems), 20 μM zVAD (ChemShuttle) and 100 nM SMAC mimetic (MedChem Express) in the presence of different concentrations of compounds ranging from […] to 0.01 μM. Cells treated with 0.1% DMSO or cells treated with TNFα+zVAD+SMAC mimetic were used as control and vehicle respectively.
Assay plates containing cells were incubated for 6 hours at 37° C. and 5% CO2. Necroptosis was assessed using Sytox Green Nucleic Acid Stain (Invitrogen) and Hoechst staining. After incubation, 100 μL of Sytox dye at 2 μM (2×) diluted in HBSS 1× was added to each well. At the same time, Hoechst stain is added to a final concentration of 10 μM and incubated for 15 min at room temperature. Images were taken for Sytox and Hoechst using the Cytation 5 microplate reader with DAPI and GFP filter cubes (Biotek). Sytox and Hoechst positive cells were counted with CellProfiler software.
Percentage of necroptosis inhibition was calculated as the percent compared to control and vehicle conditions which correspond to 100% and 0% respectively. The half-maximum necroptosis inhibition (IC50) levels were calculated using GraphPad Prism software and are shown in Table 3 (NT represents compound not tested).

T1 sequence (Q9Y572 whole entry): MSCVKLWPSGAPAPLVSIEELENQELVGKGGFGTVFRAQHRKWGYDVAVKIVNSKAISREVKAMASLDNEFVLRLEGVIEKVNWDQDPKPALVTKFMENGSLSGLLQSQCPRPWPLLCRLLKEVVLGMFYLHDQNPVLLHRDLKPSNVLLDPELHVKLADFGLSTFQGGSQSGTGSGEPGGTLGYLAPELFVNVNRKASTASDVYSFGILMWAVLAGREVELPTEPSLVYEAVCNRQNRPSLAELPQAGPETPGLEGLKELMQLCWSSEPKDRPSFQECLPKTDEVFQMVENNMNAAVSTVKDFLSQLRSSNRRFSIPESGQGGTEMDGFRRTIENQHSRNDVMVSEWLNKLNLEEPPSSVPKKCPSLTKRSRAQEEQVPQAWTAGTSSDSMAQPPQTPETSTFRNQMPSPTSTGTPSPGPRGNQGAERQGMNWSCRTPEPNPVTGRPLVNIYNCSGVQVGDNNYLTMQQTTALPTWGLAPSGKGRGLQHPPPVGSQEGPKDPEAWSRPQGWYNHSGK

`CN1CCN(Cc2ccc(-c3ccc4nccc(Nc5ccc6scnc6c5)c4c3)cc2)CC1` [Compound 1, N-(6-(4-((4-methylpiperazin-1-yl)methyl)phenyl)quinolin-4-yl)benzo[d]thiazol-5-amine]: the IC50 (commonly the concentration that gives 50% inhibition) was 2.58 nM against RIPK3, 341 nM in the test on Murine L929 cells and 334 nM in the test on Human HT-29 cells.

As to `CN1CCN(Cc2ccc(-c3ccc4nccc(Nc5ccc6scnc6c5)c4c3)c(F)c2)CC1` [Compound 11, N-(6-(2-fluoro-4-((4-methylpiperazin-1-yl)methyl)phenyl)quinolin-4-yl)benzo[d]thiazol-5-amine], the IC50 worked out at 1.29 nM against RIPK3, 333 nM with Murine L929 cells and 102 nM in the test with Human HT-29 cells.

As for `O=C1CN(Cc2ccc(-c3ccc4nccc(Nc5ccc6scnc6c5)c4c3)c(F)c2)CCN1` [Compound 12, 4-(4-(4-(benzo[d]thiazol-5-ylamino)quinolin-6-yl)-3-fluorobenzyl)piperazin-2-one], the IC50 at RIPK3 is 1.67 nM; in the test with Murine L929 cells, 776 nM; in the test with Human HT-29 cells, 208 nM.

`CN1CCN(Cc2ccc(-c3ccc4nccc(Nc5ccc6scnc6c5)c4c3)c(F)c2)CC1=O` [Compound 13, 4-(4-(4-(benzo[d]thiazol-5-ylamino)quinolin-6-yl)-3-fluorobenzyl)-1-methylpiperazin-2-one]: the figures for the IC50 at RIPK3, with Murine L929 cells and with Human HT-29 cells were 1.72 nM, 1130 nM and 317 nM, respectively.

Turning to `Fc1cc(CN2CCCCC2)ccc1-c1ccc2nccc(Nc3ccc4scnc4c3)c2c1` [Compound 14, N-(6-(2-fluoro-4-(piperidin-1-ylmethyl)phenyl)quinolin-4-yl)benzo[d]thiazol-5-amine], the values for the half-maximal inhibitory concentration (IC50) on RIPK3, in the test with Murine L929 cells and in the test on Human HT-29 cells were 2.99 nM, 492 nM and 565 nM, respectively.

Take `CN1CCN(c2ccc(-c3ccc4nccc(Nc5ccc6scnc6c5)c4c3)cc2)CC1` [Compound 15, N-(6-(4-(4-methylpiperazin-1-yl)phenyl)quinolin-4-yl)benzo[d]thiazol-5-amine]: the half-maximal inhibitory concentration (IC50) on RIPK3 was 3.57 nM; in the test with Murine L929 cells, 1190 nM; in the test on Human HT-29 cells, over 1000 nM.

As to `CN1CCN(Cc2ccc(-c3ccc4c(Nc5ccc6scnc6c5)ccnc4c3)cc2)CC1` [Compound 16, N-(7-(4-((4-methylpiperazin-1-yl)methyl)phenyl)quinolin-4-yl)benzo[d]thiazol-5-amine], the IC50 stood at 0.51 nM at RIPK3, 104 nM in the test on Murine L929 cells and 158 nM in the test with Human HT-29 cells.

As for `OCCN1CCN(Cc2ccc(-c3ccc4nccc(Nc5ccc6scnc6c5)c4c3)c(F)c2)CC1` [Compound 17, 2-(4-(4-(4-(benzo[d]thiazol-5-ylamino)quinolin-6-yl)-3-fluorobenzyl)piperazin-1-yl)ethanol], the figures for the IC50 on RIPK3, with Murine L929 cells and in the test on Human HT-29 cells were 0.95 nM, 341 nM and 97.1 nM, respectively.

Regarding `CN1CCN(Cc2ccc(-c3ccc4nccc(Nc5ccc6scnc6c5)c4c3)cc2F)CC1` [Compound 21, N-(6-(3-fluoro-4-((4-methylpiperazin-1-yl)methyl)phenyl)quinolin-4-yl)benzo[d]thiazol-5-amine], the IC50 is 1.51 nM at RIPK3 and under 10000 nM with Murine L929 cells.

`Fc1cc(CN2CCOCC2)ccc1-c1ccc2nccc(Nc3ccc4scnc4c3)c2c1` [Compound 22, N-(6-(2-fluoro-4-(morpholinomethyl)phenyl)quinolin-4-yl)benzo[d]thiazol-5-amine]: the figures for the concentration for half-maximal inhibition (IC50) against RIPK3, in the test on Murine L929 cells and in the test on Human HT-29 cells were 2.13 nM, 316 nM and 327 nM, respectively.

On to `O=C(c1ccc(-c2ccc3c(Nc4ccc5scnc5c4)ccnc3c2)c(F)c1)N1CCOCC1` [Compound 244, (4-(4-(benzo[d]thiazol-5-ylamino)quinolin-7-yl)-3-fluorophenyl)(morpholino)methanone], for which the IC50 was 1.92 nM on RIPK3 and under 1000 nM with Murine L929 cells.

On to `CC1(O)CCN(C(=O)c2ccc(-c3ccc4nccc(Nc5ccc6scnc6c5)c4c3)c(F)c2)CC1` [Compound 318, (4-(4-(benzo[d]thiazol-5-ylamino)quinolin-6-yl)-3-fluorophenyl)(4-hydroxy-4-methylpiperidin-1-yl)methanone], for which the IC50 was found to be 686 nM in the test on Murine L929 cells and 53.7 nM in the test with Human HT-29 cells.

As for `CC1(O)CCN(Cc2ccc(-c3ccc4nccc(Nc5ccc6scnc6c5)c4c3)c(F)c2)CC1` [Compound 319, 1-(4-(4-(benzo[d]thiazol-5-ylamino)quinolin-6-yl)-3-fluorobenzyl)-4-methylpiperidin-4-ol], the figures for the IC50 with Murine L929 cells and in the test on Human HT-29 cells were 301 nM and 284 nM, respectively.

For `CNC(=O)CNCc1ccc(-c2ccc3nccc(Nc4ccc5scnc5c4)c3c2)c(F)c1` [Compound 320, 2-((4-(4-(benzo[d]thiazol-5-ylamino)quinolin-6-yl)-3-fluorobenzyl)amino)-N-methylacetamide], the IC50 amounted to 444 nM with Murine L929 cells and 243 nM in the test on Human HT-29 cells.

With `COC1CCN(C(=O)c2ccc(-c3ccc4nccc(Nc5ccc6scnc6c5)c4c3)c(F)c2)CC1` [Compound 321, (4-(4-(benzo[d]thiazol-5-ylamino)quinolin-6-yl)-3-fluorophenyl)(4-methoxypiperidin-1-yl)methanone], the figures for the IC50 in the test with Murine L929 cells and with Human HT-29 cells were 238 nM and 109 nM, respectively.

With `O=C(c1ccc(-c2cc3c(Nc4ccc5scnc5c4)ccnc3cc2F)c(F)c1)N1CCOCC1` [Compound 322, (4-(4-(benzo[d]thiazol-5-ylamino)-7-fluoroquinolin-6-yl)-3-fluorophenyl)(morpholino)methanone], the IC50 in the test with Murine L929 cells is 175 nM; in the test on Human HT-29 cells it was 111 nM.

Turning to `Fc1cc(CN2CC3(CNC3)C2)ccc1-c1ccc2c(Nc3ccc4scnc4c3)ccnc2c1` [Compound 323, N-(7-(4-((2,6-diazaspiro[3.3]heptan-2-yl)methyl)-2-fluorophenyl)quinolin-4-yl)benzo[d]thiazol-5-amine], the values for the IC50 with Murine L929 cells and in the test with Human HT-29 cells were 454 nM and 296 nM, respectively.

Turning to `O=C(c1ccc(-c2ccc3nccc(Nc4ccc5scnc5c4)c3c2)c(F)c1)N1CC2(COC2)C1` [Compound 324, (4-(4-(benzo[d]thiazol-5-ylamino)quinolin-6-yl)-3-fluorophenyl)(2-oxa-6-azaspiro[3.3]heptan-6-yl)methanone], the IC50 in the test on Murine L929 cells came to 223 nM; in the test with Human HT-29 cells, 76.5 nM.

With `O=C(NC1CCOCC1)c1ccc(-c2ccc3nccc(Nc4ccc5scnc5c4)c3c2)c(F)c1` [Compound 325, 4-(4-(benzo[d]thiazol-5-ylamino)quinolin-6-yl)-3-fluoro-N-(tetrahydro-2H-pyran-4-yl)benzamide], the IC50 in the test on Murine L929 cells worked out at 665 nM; in the test with Human HT-29 cells, 69.7 nM.

Consider `O=C(c1ccc(-c2ccc3nccc(Nc4ccc5scnc5c4)c3c2)cn1)N1CCOCC1` [Compound 326, (5-(4-(benzo[d]thiazol-5-ylamino)quinolin-6-yl)pyridin-2-yl)(morpholino)methanone], for which the figures for the IC50 in the test with Murine L929 cells and with Human HT-29 cells were 1790 nM and 305 nM, respectively.

Regarding `CN1CCN(Cc2ccc(-c3ccc4c(Nc5ccc6scnc6c5)ccnc4c3)c(F)c2)CC1=O` [Compound 327, 4-(4-(4-(benzo[d]thiazol-5-ylamino)quinolin-7-yl)-3-fluorobenzyl)-1-methylpiperazin-2-one], the results for the IC50 in the test on Murine L929 cells and in the test on Human HT-29 cells were 160 nM and 25.2 nM, respectively.

Regarding `CC(C)S(=O)(=O)c1ccc2nccc(Nc3ccc4scnc4c3)c2c1` [Compound A, N-(6-(isopropylsulfonyl)quinolin-4-yl)benzo[d]thiazol-5-amine, reference compound], the IC50 stood at 1960 nM in the test on Murine L929 cells and 1260 nM in the test on Human HT-29 cells.
